Among the data in US11440909B2, “10H-phenothiazine ferroptosis inhibitor as well as the preparative method and the use thereof” (CHENGDU HENGHAO INVESTMENT CO. LIMITED, priority 2018, dated 2022) are EC50 values, retold here.

The test system of the first experiment is fibrosarcoma cell line HT1080. Nature of the experiment: Ferroptosis screening model (MTT method), Erastin-induced ferroptosis. It counts as cell-based, human. As to conditions: HT1080, ferroptosis inducer Erastin, 72 h, average of three tests, read-out: EC50. The procedure, abridged:
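HT1080 cells adhered 24 h, then received compound plus Erastin ([…] final) for 72 h at 37 °C, 5% CO2, in triplicate. Viability by MTT with SDS solubilisation, absorbance at 570 nm; inhibition of ferroptosis fitted to give EC50.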
A general note: Formazan colour is commonly taken as a measure of viable cells.
As to `COc1ccccc1N1CCN(S(=O)(=O)C(C)c2ccc3c(c2)Nc2ccccc2S3)CC1` (stereo not shown) [Compound C49, 2-(1-((4-(2-methoxylphenyl)piperazin-1-yl)sulfonyl)ethyl)-10H-phenothiazine], the EC50 (as a rule, the concentration needed to bring the measured effect to its halfway point) worked out at 228 nM. The same measure, in the same setting: in the case of `C=C(c1cnc(N2CCOCC2)nc1)c1ccc2c(c1)Nc1ccccc1S2` [Compound B51, 4-(5-(1-(10H-phenothiazin-2-yl)ethenyl)pyrimidin-2-yl)morpholine] it was 10 nM; in that of `CC(C)Oc1ccc(C(C)c2ccc3c(c2)Nc2ccccc2S3)cc1` (stereo not shown) [Compound A33, 2-(1-(4-isopropoxylphenyl)ethyl)-10H-phenothiazine], 17 nM. `C=C(c1ccc(N2CCOCC2)cc1)c1ccc2c(c1)Nc1ccccc1S2` [Compound B14, 4-(4-(1-(10H-phenothiazin-2-yl)ethenyl)phenyl)morpholine]: the EC50 turned out to be 39 nM.

As for `CC(c1ccc2c(c1)Nc1ccccc1S2)S(=O)(=O)N1CCN(c2ccccc2)CC1` (stereo not shown) [Compound C24, 2-(1-((4-phenylpiperazin-1-yl)sulfonyl)ethyl)-10H-phenothiazine], the EC50 was determined as 417 nM.

Still in this experiment, the particulars now being: Homo sapiens, HT-1080, 72 h, HT1080, ferroptosis inducer Erastin, 72 h, average of three tests, read-out: EC50.
For the molecule `CC(c1ccc(N(c2ccccc2)c2ccccc2)cc1)c1ccc2c(c1)Nc1ccccc1S2` (stereo not shown) [Compound A37, 4-(1-(10H-phenothiazin-2-yl)ethyl)-N,N-diphenylphenylamine], the EC50 is 323 nM.

For the molecule `COc1cc(OC)cc(C(C)c2ccc3c(c2)Nc2ccccc2S3)c1` (stereo not shown) [Compound A60, 2-(1-(3,5-dimethoxylphenyl)ethyl)-10H-phenothiazine], the EC50 is 12 nM. On the same count and under the same terms, in the case of `CC(c1ccc(F)c(F)c1)c1ccc2c(c1)Nc1ccccc1S2` (stereo not shown) [Compound A39, 2-(1-(3,4-difluorophenyl)ethyl)-10H-phenothiazine] it was 17 nM. The same measure, in the same setting: with `CC(c1ccc(C(F)(F)F)c(Cl)c1)c1ccc2c(c1)Nc1ccccc1S2` (stereo not shown) [Compound A45, 2-(1-(3-chloro-4-(trifluoromethyl)phenyl)ethyl)-10H-phenothiazine] the figure was 22 nM; with `CCOc1ccc(C(C)c2ccc3c(c2)Nc2ccccc2S3)cc1` (stereo not shown) [Compound A31, 2-(1-(4-ethoxylphenyl)ethyl)-10H-phenothiazine], 17 nM. Take `CC(c1cccc(OC(F)(F)F)c1)c1ccc2c(c1)Nc1ccccc1S2` (stereo not shown) [Compound A17, 2-(1-(3-(trifluoromethoxyl)phenyl)ethyl)-10H-phenothiazine]: the EC50 came to 13 nM.

As to `CC(c1ccc(C(C)(C)C)cc1)c1ccc2c(c1)Nc1ccccc1S2` (stereo not shown) [Compound A29, 2-(1-(4-t-butylphenyl)ethyl)-10H-phenothiazine], the EC50 is 7 nM. Same read-out and setting: with `CC(c1ccc2c(c1)Nc1ccccc1S2)S(=O)(=O)N1C[C@@H](C)O[C@@H](C)C1` (stereo partly drawn) [Compound C44, (2S,6R)-4-((1-(10H-phenothiazin-2-yl)ethyl)sulfonyl)-2,6-dimethylmorpholine] the figure was 426 nM; with `CC(c1cc(C(F)(F)F)cc(C(F)(F)F)c1)c1ccc2c(c1)Nc1ccccc1S2` (stereo not shown) [Compound A58, 2-(1-(3,5-bis(trifluoromethyl)phenyl)ethyl)-10H-phenothiazine], 19 nM. Same read-out and setting: in the case of `CC(c1ccc2c(c1)Nc1ccccc1S2)S(=O)(=O)N1CCN(C(=O)C2CCCO2)CC1` (stereo not shown) [Compound C11, (4-((1-(10H-phenothiazin-2-yl)ethyl)sulfonyl)piperazin-1-yl)(tetrahydrofuran-2-yl)ketone] it was 269 nM; in that of `C=C(c1cccc(C)c1)c1ccc2c(c1)Nc1ccccc1S2` [Compound B24, 2-(1-(m-methylphenyl)ethenyl)-10H-phenothiazine], 31 nM; in that of `CC(c1ccc2c(c1)Nc1ccccc1S2)S(=O)(=O)N1CCN(CCO)CC1` (stereo not shown) [Compound C13, 2-(4-((1-(10H-phenothiazin-2-yl)ethyl)sulfonyl)piperazin-1-yl)-1-ethanol], 62 nM. The same measure, in the same setting: with `C=C(c1cccc(S(N)(=O)=O)c1)c1ccc2c(c1)Nc1ccccc1S2` [Compound B20, 3-(1-(10H-phenothiazin-2-yl)ethenyl)benzenesulfonamide] the figure was 10 nM; with `CCOC(=O)c1cccc(C(C)c2ccc3c(c2)Nc2ccccc2S3)c1` (stereo not shown) [Compound A14, 3-(1-(10H-phenothiazin-2-yl)ethyl)benzoic acid ethyl ester], 5 nM. Consider `COc1cccc(N2CCN(S(=O)(=O)C(C)c3ccc4c(c3)Nc3ccccc3S4)CC2)c1` (stereo not shown) [Compound C54, 2-(1-((4-(3-methoxylphenyl)piperazin-1-yl)sulfonyl)ethyl)-10H-phenothiazine], for which the EC50 came out at 165 nM. As to `CC(c1ccc2c(c1)Nc1ccccc1S2)S(=O)(=O)N1CCCN(C)CC1` (stereo not shown) [Compound C3, 2-(1-((4-methyl-1,4-homopiperazin-1-yl)sulfonyl)ethyl)-10H-phenothiazine], the EC50 was determined as 9 nM. On the same count and under the same terms, with `CC(c1ccc2c(c1)Nc1ccccc1S2)S(=O)(=O)N1CCN(CCN2CCOCC2)CC1` (stereo not shown) [Compound C12, 4-(2-(4-((1-(10H-phenothiazin-2-yl)ethyl)sulfonyl)piperazin-1-yl)ethyl)morpholine] the figure was 76 nM; with `C=C(c1cccc([N+](=O)[O-])c1)c1ccc2c(c1)Nc1ccccc1S2` [Compound B19, 2-(1-(3-nitrophenyl)ethenyl)-10H-phenothiazine], 13 nM. Take `CC(c1ccc2c(c1)Nc1ccccc1S2)S(=O)(=O)N1C2CCC1CC(O)C2` (stereo not shown) [Compound C8, 8-((1-(10H-phenothiazin-2-yl)ethyl)sulfonyl)-8-azabicyclo[3.2.1]-3-octanol]: the EC50 came out at 46 nM. On the same count and under the same terms, in the case of `CC(c1cccc(F)c1)c1ccc2c(c1)Nc1ccccc1S2` (stereo not shown) [Compound A2, 2-(1-(3-fluorophenyl)ethyl)-10H-phenothiazine] it was 6 nM; in that of `CC(c1ccc2c(c1)Nc1ccccc1S2)S(=O)(=O)N1CCC(O)CC1` (stereo not shown) [Compound C18, 1-((1-(10H-phenothiazin-2-yl)ethyl)sulfonyl)-4-piperidinol], 79 nM. As for `CCOC(=O)[C@@H]1CCCN(S(=O)(=O)C(C)c2ccc3c(c2)Nc2ccccc2S3)C1` (stereo partly drawn) [Compound C39, ethyl (3R)-1-((1-(10H-phenothiazin-2-yl)ethyl)sulfonyl)piperidin-3-formate], the EC50 is 244 nM.

Turning to `C=C(c1cccc(S(=O)(=O)NC(C)(C)C)c1)c1ccc2c(c1)Nc1ccccc1S2` [Compound B53, 3-(1-(10H-phenothiazin-2-yl)ethenyl)-N-(t-butyl)Benzenesulfonamide], the 50% effective concentration (EC50) is 148 nM. With `CC(c1ccc2c(c1)Nc1ccccc1S2)S(=O)(=O)N1CC[C@H](O)C1` (stereo partly shown) [Compound C41], the EC50 is 117 nM. Same read-out and setting: with `C=C(c1ccc(S(=O)(=O)NC2CCC2)cc1)c1ccc2c(c1)Nc1ccccc1S2` [Compound B58, 4-(1-(10H-phenothiazin-2-yl)ethenyl)-N-cyclobutylbenzenesulfonamide] the figure was 66 nM; with `C=C(c1ccc(C)cc1)c1ccc2c(c1)Nc1ccccc1S2` [Compound B6, 2-(1-(p-methylphenyl)ethenyl)-10H-phenothiazine], 45 nM; with `CC(c1ccc2c(c1)Nc1ccccc1S2)c1cccc2c1COCO2` (stereo not shown) [Compound A66, 2-(1-(benzo[d][1,3]dioxin-5-yl)ethyl)-10H-phenothiazine], 5 nM. The same measure, in the same setting: with `CC(c1ccc2c(c1)Nc1ccccc1S2)S(=O)(=O)N1CCN(CCCN(C)C)CC1` (stereo not shown) [Compound C7, 3-(4-((1-(10H-phenothiazin-2-yl)ethyl)sulfonyl)piperazin-1-yl)-N,N-dimethylpropan-1-amine] the figure was 46 nM; with `CC(c1ccc2c(c1)Nc1ccccc1S2)S(=O)(=O)N1CCCC(CNC(=O)OC(C)(C)C)C1` (stereo not shown) [Compound C35, t-butyl ((1-((1-(10H-phenothiazin-2-yl)ethyl)sulfonyl)piperidin-3-yl)methyl)carbamate], 342 nM.

On to `C=C(c1ccc(NC(C)=O)cc1)c1ccc2c(c1)Nc1ccccc1S2` [Compound B9, N-(4-(1-(10H-phenothiazin-2-yl)ethenyl)phenyl)acetylamine], for which the EC50 came out at 3 nM. Still for that read-out and setting: in the case of `C=C(c1cccc(C(=O)c2ccccc2)c1)c1ccc2c(c1)Nc1ccccc1S2` [Compound B33, (3-(1-(10H-phenothiazin-2-yl)ethenyl)phenyl)benzophenone] it was 111 nM; in that of `CC(C)N1CCN(S(=O)(=O)C(C)c2ccc3c(c2)Nc2ccccc2S3)CC1` (stereo not shown) [Compound C4, 2-(1-((4-isopropylpiperazin-1-yl)sulfonyl)ethyl)-10H-phenothiazine], 29 nM. Same read-out and setting: with `C=C(c1ccc(CC)cc1)c1ccc2c(c1)Nc1ccccc1S2` [Compound B4, 2-(1-(4-ethylphenyl)ethenyl)-10H-phenothiazine] the figure was 23 nM; with `CC(c1ccc2c(c1)Nc1ccccc1S2)S(=O)(=O)N1CCN(Cc2ccc3c(c2)OCO3)CC1` (stereo not shown) [Compound C5, 2-(1-((4-(benzo[d][1,3]dioxa-5-ylmethyl)piperazin-1-yl)sulfonyl)ethyl)-10H-phenothiazine], 35 nM. On the same count and under the same terms, in the case of `CC(c1ccc2c(c1)Nc1ccccc1S2)S(=O)(=O)N1CCC(NC(=O)OC(C)(C)C)CC1` (stereo not shown) [Compound C37, t-butyl (1-((1-(10H-phenothiazin-2-yl)ethyl)sulfonyl)piperidin-4-yl)carbamate] it was 271 nM; in that of `CC(c1cc(Cl)cc(Cl)c1)c1ccc2c(c1)Nc1ccccc1S2` (stereo not shown) [Compound A57, 2-(1-(3,5-dichlorophenyl)ethyl)-10H-phenothiazine], 18 nM; in that of `C=C(c1cccc(OC(C)C)c1)c1ccc2c(c1)Nc1ccccc1S2` [Compound B23, 2-(1-(3-isopropoxylphenyl)ethenyl)-10H-phenothiazine], 48 nM.

As for `CC(c1cccc(C(=O)OC(C)(C)C)c1)c1ccc2c(c1)Nc1ccccc1S2` (stereo not shown) [Compound A15, 3-(1-(10H-phenothiazin-2-yl)ethyl)benzoic acid t-butyl ester], the EC50 is 17 nM.
